Key:
Assay in all cases: relative viability (nuclei count vs DMSO), 5 days (fraction); higher = more cells survive
AZ505 + AZD7762 = compound: C1CCC(CC1)N(CCNCCC2=C3C(=C(C=C2)O)NC(=O)CO3)C(=O)CCNCCC4=CC(=C(C=C4)Cl)Cl [AZ505] + NC(=O)Nc1cc(-c2cccc(F)c2)sc1C(=O)N[C@H]1CCCNC1 [AZD7762] (partner 0.2 µM)
Method in brief: (§1)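 Nuclei were stained with Hoechst during a one-step fixation (final 0.05% Triton X-100, 1% formaldehyde, 1 ug/ml Hoechst) carried out 5 days after dosing, then counted on 4× images. The cells, lung cancer lines in 1536-well plates, had been dosed by pin tool the day after seeding with one drug alone or a fixed anchor-drug dose plus five library-drug doses (not always all listed) in √10 steps. Relative viability is the nuclei count in treated wells divided by that in vehicle wells, and each value is the median of duplicate plates.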

Dactolisib + Phenformin = compound: Cn1c(=O)n(-c2ccc(C(C)(C)C#N)cc2)c2c3cc(-c4cnc5ccccc5c4)ccc3ncc21 [Dactolisib] + N=C(N)NC(=N)NCCc1ccccc1 [Phenformin] (partner 250 µM)
Method in brief: as §1

AZ505 + Pictilisib = compound: C1CCC(CC1)N(CCNCCC2=C3C(=C(C=C2)O)NC(=O)CO3)C(=O)CCNCCC4=CC(=C(C=C4)Cl)Cl [AZ505] + CS(=O)(=O)N1CCN(Cc2cc3nc(-c4cccc5[nH]ncc45)nc(N4CCOCC4)c3s2)CC1 [Pictilisib] (partner 1 µM)
Method in brief: as §1

AZ505 + Trametinib = compound: C1CCC(CC1)N(CCNCCC2=C3C(=C(C=C2)O)NC(=O)CO3)C(=O)CCNCCC4=CC(=C(C=C4)Cl)Cl [AZ505] + CC(=O)Nc1cccc(-n2c(=O)n(C3CC3)c(=O)c3c(Nc4ccc(I)cc4F)n(C)c(=O)c(C)c32)c1 [Trametinib] (partner 0.02 µM)
Method in brief: as §1

| Cell Line | relative viability (AZ505 + AZD7762; first compound 0.08 µM) | relative viability (AZ505 + AZD7762; first compound 0.253 µM) | relative viability (AZ505 + AZD7762; first compound 0.8 µM) | relative viability (AZ505 + AZD7762; first compound 2.53 µM) | relative viability (AZ505 + AZD7762; first compound 8 µM) | relative viability (Dactolisib + Phenformin; first compound 0.002 µM) | relative viability (Dactolisib + Phenformin; first compound 0.006325 µM) | relative viability (Dactolisib + Phenformin; first compound 0.02 µM) | relative viability (Dactolisib + Phenformin; first compound 0.06325 µM) | relative viability (Dactolisib + Phenformin; first compound 0.2 µM) | relative viability (AZ505 + Pictilisib; first compound 0.08 µM) | relative viability (AZ505 + Pictilisib; first compound 0.253 µM) | relative viability (AZ505 + Pictilisib; first compound 0.8 µM) | relative viability (AZ505 + Pictilisib; first compound 2.53 µM) | relative viability (AZ505 + Pictilisib; first compound 8 µM) | relative viability (AZ505 + Trametinib; first compound 0.08 µM) | relative viability (AZ505 + Trametinib; first compound 0.253 µM) | relative viability (AZ505 + Trametinib; first compound 0.8 µM) | relative viability (AZ505 + Trametinib; first compound 2.53 µM) | relative viability (AZ505 + Trametinib; first compound 8 µM) |
| --- | --- | --- | --- | --- | --- | --- | --- | --- | --- | --- | --- | --- | --- | --- | --- | --- | --- | --- | --- | --- |
| NCI-H1975 | 0.674 | 0.614 | 0.765 | 0.703 | 0.81 | 0.435 | 0.382 | 0.376 | 0.216 | 0.162 | 0.264 | 0.303 | 0.267 | 0.277 | 0.283 | 0.351 | 0.315 | 0.377 | 0.356 | 0.332 |
| CAL-12T | 0.62 | 0.647 | 0.605 | 0.575 | 0.814 | 0.672 | 0.567 | 0.508 | 0.236 | 0.192 | 0.445 | 0.355 | 0.559 | 0.432 | 0.512 | 0.335 | 0.414 | 0.312 | 0.36 | 0.337 |
| NCI-H1623 | – | – | – | – | – | 0.618 | 0.628 | 0.561 | 0.585 | 0.438 | – | – | – | – | – | – | – | – | – | – |
| HCC-44 | 1 | 0.964 | 0.916 | 1.03 | 1.02 | 0.274 | 0.203 | 0.171 | – | 0.166 | 0.635 | 0.716 | 0.479 | 0.669 | 0.601 | 1.03 | 1.09 | 1.02 | 1.05 | 1.1 |
| EKVX | – | 0.629 | 0.849 | 0.678 | 0.746 | 0.26 | 0.222 | 0.229 | 0.225 | 0.215 | 0.388 | 0.466 | 0.425 | 0.446 | 0.501 | – | 0.326 | 0.321 | 0.414 | 0.397 |
| NCI-H1651 | 0.43 | 0.412 | 0.472 | 0.467 | 0.48 | 0.333 | 0.279 | 0.305 | 0.243 | 0.204 | 0.656 | 0.56 | 0.603 | 0.633 | 0.588 | 0.814 | 0.863 | 0.834 | 0.817 | 0.829 |
| NCI-H1944 | 0.455 | 0.519 | 0.727 | 0.389 | 0.474 | 0.235 | 0.21 | 0.187 | 0.138 | 0.14 | 0.343 | 0.372 | 0.346 | 0.344 | 0.334 | 0.377 | 0.391 | 0.414 | 0.444 | 0.386 |
| NCI-H1703 | 0.106 | – | 0.12 | 0.114 | 0.134 | – | – | – | – | – | 0.242 | 0.235 | 0.231 | 0.256 | 0.25 | – | – | – | – | – |
| Calu-6 | – | – | – | – | – | – | – | – | – | – | 0.835 | 0.989 | 0.884 | 0.905 | 0.867 | – | – | – | – | – |
| EBC-1 | – | – | – | – | – | – | – | – | – | – | 0.374 | 0.375 | 0.345 | 0.354 | 0.328 | – | – | – | – | – |
| A-427 | 0.695 | 0.618 | 0.705 | 0.715 | 0.647 | 0.366 | 0.335 | 0.348 | 0.263 | 0.244 | 0.693 | 0.514 | 0.566 | 0.726 | 0.741 | 0.705 | 0.776 | 0.631 | 0.738 | 0.743 |
| NCI-H2347 | 0.548 | 0.659 | 0.554 | 0.553 | 0.578 | 0.731 | 0.409 | 0.381 | 0.329 | 0.264 | 0.551 | 0.581 | 0.537 | 0.455 | 0.541 | 0.332 | 0.258 | 0.263 | 0.247 | 0.254 |
| NCI-H1355 | 0.677 | 0.474 | 0.757 | 0.689 | 0.858 | 0.497 | 0.429 | 0.43 | 0.373 | 0.316 | 0.409 | 0.338 | 0.428 | 0.321 | 0.445 | 0.419 | 0.394 | 0.446 | 0.445 | 0.44 |
| NCI-H358 | 0.466 | 0.52 | 0.422 | – | 0.526 | 0.317 | 0.302 | 0.286 | 0.221 | 0.111 | 0.3 | 0.332 | 0.355 | 0.313 | 0.371 | 0.113 | 0.136 | 0.112 | 0.119 | 0.13 |
| PC-3 [JPC-3] | 0.784 | – | 0.843 | 0.873 | 1.06 | 0.494 | 0.485 | 0.475 | 0.47 | 0.469 | 0.597 | 0.702 | 0.676 | 0.706 | 0.827 | 0.596 | – | 0.694 | 0.704 | 0.693 |
| NCI-H2228 | – | – | – | – | – | 0.302 | 0.272 | 0.179 | 0.192 | 0.164 | 0.317 | 0.247 | 0.536 | 0.332 | 0.484 | 0.311 | 0.374 | 0.441 | 0.49 | 0.429 |
| HOP-62 | 0.43 | 0.328 | 0.682 | 0.63 | 0.669 | 0.736 | 0.654 | 0.655 | 0.405 | 0.356 | 0.557 | 0.678 | 0.829 | 0.407 | 0.647 | 0.371 | 0.326 | 0.333 | 0.382 | 0.32 |
| HARA | 0.354 | – | 0.33 | 0.693 | 0.351 | 0.467 | 0.441 | 0.51 | 0.405 | 0.211 | 0.267 | 0.399 | 0.287 | 0.228 | 0.264 | 0.454 | – | 0.62 | 0.504 | 0.71 |
| NCI-H838 | 0.888 | 0.955 | 0.936 | 0.951 | 0.985 | 0.628 | 0.423 | 0.267 | 0.201 | 0.175 | 0.342 | 0.404 | 0.493 | 0.344 | 0.411 | 0.487 | 0.464 | 0.505 | 0.523 | 0.479 |

From the supplement of paper PMC10307832
